From patent US20220296595A1, “CDK INHIBITORS” (QILU REGOR THERAPEUTICS INC., priority 2019, published 2022)
Like-named read-outs stand apart in the source and are kept apart here.

Experiments:
T47D breast cancer cells = test: Anti-proliferation assay in T47D cell (Cyquant, day 6); type: cell-based, human; settings: Homo sapiens, T47D, anti-proliferation, T47D cells; read-out: T47D IC50
Procedure, shortened: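 A ten-point, 3-fold compound series (10 μM down to 0.51 nM) was applied to overnight-settled cells in 10% FBS RPMI 1640, and DNA content was read by CyQuant fluorescence 6 days later. An untreated plate read before dosing served as baseline for subtraction before IC50 fitting.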

CDK4/CyclinD1 = biological target: T1, CDK4/CyclinD1 (Homo sapiens, UniProt P11802); test: Assay for inhibition of CDK4/CyclinD1 (Caliper microfluidic kinase assay); type: biochemical
T1 construct: purchased Thermofisher PR8064A
Procedure, shortened: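 IC50 was obtained by 4-parameter sigmoidal fitting after 1 nM CDK4/CyclinD1, 200 μM ATP and 1 μM FL-34 substrate reacted for 3 h at room temperature (pH 7.5 HEPES, 10 mM MgCl2). After EDTA quench, substrate and product were separated and detected on a Caliper microfluidic chip.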

CDK2/CyclinE1 = biological target: T2, CDK2/CyclinE1 (Homo sapiens, UniProt P24941); test: Assay for inhibition of CDK2/CyclinE1 (Caliper microfluidic kinase assay); type: biochemical; settings: read-out: CDK2 IC50
T2 construct: purchased SignalChem C29-18G
Procedure, shortened: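 IC50 came from 4-parameter fits of substrate-to-product conversion, separated on a Caliper chip after an EDTA stop. Reactions ran 3 hours at room temperature with 100 μM ATP, 5 μM fluorescent FL-18 peptide and 5 nM enzyme in 100 mM HEPES pH 7.5, 10 mM MgCl2.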

CDK6/CyclinD3 = biological target: T3, CDK6/CyclinD3 (Homo sapiens, UniProt Q00534); test: Assay for inhibition of CDK6/CyclinD3 (Caliper microfluidic kinase assay); type: biochemical
T3 construct: purchased Carna 04-107
Procedure, shortened: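 IC50s came from four-parameter dose-response fits of microfluidic substrate/product separation data. Reactions held 2 nM CDK6/CyclinD3, 300 μM ATP and 1 μM 5-FAM peptide FL-34 in pH 7.5 HEPES/MgCl2 buffer, ran 3 hours at room temperature, then were quenched with EDTA.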

[1] = test system: phosphorylation of Retinoblastoma Protein (pRb Ser807/811 or Ser780) in T47D cells; test: Inhibition of phosphorylation of retinoblastoma protein (pRb) in T47D cell (ELISA); type: cell-based, human; settings: Homo sapiens, T47D, read-out: Phospho T47D Ser807 IC50, pRb Ser807 phosphorylation, T47D cells
Procedure, shortened: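 T47D cells in RPMI 1640 + 10% FBS, adhered overnight, then treated 24 h with 3-fold compound titrations (top concentration […]). Lysates assayed by sandwich ELISA for pRb Ser807/811 or Ser780 with HRP/TMB detection. IC50 from 4-parameter sigmoidal fit.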

T1 sequence (P11802 whole entry): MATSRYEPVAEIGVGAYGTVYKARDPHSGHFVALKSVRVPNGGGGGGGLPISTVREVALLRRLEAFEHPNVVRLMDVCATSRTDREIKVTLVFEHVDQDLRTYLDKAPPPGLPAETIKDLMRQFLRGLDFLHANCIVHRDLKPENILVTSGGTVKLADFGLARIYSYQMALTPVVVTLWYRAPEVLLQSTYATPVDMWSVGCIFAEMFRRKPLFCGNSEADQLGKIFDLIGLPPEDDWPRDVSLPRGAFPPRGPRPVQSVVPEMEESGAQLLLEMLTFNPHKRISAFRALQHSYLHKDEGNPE
T1 sequence (P24385 whole entry partner): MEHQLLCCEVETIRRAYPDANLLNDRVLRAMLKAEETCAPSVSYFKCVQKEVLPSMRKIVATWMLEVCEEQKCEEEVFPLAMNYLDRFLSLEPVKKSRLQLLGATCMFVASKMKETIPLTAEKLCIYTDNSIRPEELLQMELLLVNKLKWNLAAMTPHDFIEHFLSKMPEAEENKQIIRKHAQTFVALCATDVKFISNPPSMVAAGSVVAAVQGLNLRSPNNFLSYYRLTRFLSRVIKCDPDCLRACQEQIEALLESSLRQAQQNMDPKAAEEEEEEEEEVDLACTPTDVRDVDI
T3 sequence (Q00534 whole entry): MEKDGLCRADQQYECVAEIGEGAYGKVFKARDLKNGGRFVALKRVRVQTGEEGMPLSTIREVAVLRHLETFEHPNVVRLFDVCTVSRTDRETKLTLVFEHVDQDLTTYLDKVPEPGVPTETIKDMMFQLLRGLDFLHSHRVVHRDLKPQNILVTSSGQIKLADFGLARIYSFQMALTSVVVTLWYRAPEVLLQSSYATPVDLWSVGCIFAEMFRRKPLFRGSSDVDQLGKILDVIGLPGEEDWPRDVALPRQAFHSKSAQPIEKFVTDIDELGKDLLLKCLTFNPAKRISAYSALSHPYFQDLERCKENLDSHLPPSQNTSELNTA
T3 sequence (P30281 whole entry partner): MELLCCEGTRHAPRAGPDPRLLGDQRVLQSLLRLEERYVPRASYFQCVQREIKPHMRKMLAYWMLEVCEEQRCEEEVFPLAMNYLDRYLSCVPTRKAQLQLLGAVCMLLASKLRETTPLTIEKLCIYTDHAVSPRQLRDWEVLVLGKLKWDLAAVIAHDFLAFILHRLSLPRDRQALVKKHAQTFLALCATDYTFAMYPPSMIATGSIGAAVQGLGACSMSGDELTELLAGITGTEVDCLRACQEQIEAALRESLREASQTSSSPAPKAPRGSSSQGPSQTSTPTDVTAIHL

| SMILES | IC50 (T47D breast cancer cells) [nM] | IC50 (CDK4/CyclinD1; CDK4/CyclinD1, 200 μM ATP) [nM] | IC50 (CDK2/CyclinE1; CDK2/CyclinE1, 100 μM ATP) [nM] | IC50 (CDK6/CyclinD3; CDK6/CyclinD3, 300 μM ATP) [nM] | IC50 [1] [nM] | IC50 (CDK4/CyclinD1; CDK4/CyclinD1) [nM] | IC50 (CDK2/CyclinE1; CDK2/CyclinE1) [nM] | IC50 (CDK6/CyclinD3; CDK6/CyclinD3) [nM] |
| --- | --- | --- | --- | --- | --- | --- | --- | --- |
| CC(C)c1cnn2ccc(-c3ccnc(Nc4ccc(N5CCCC(N)C5=O)cc4)n3)cc12 (stereo not shown) [compound 214] | < 100 | < 10 | < 10 | < 10 | < 100 | – | – | – |
| CC(C)c1cnn2ccc(-c3ccnc(Nc4ccc(N5CCN(C6COC6)CC5=O)cn4)n3)cc12 [compound 234] | < 100 | < 10 | 10 to 100 | 10 to 100 | < 100 | – | – | – |
| CCN1CCN(c2ccc(Nc3nccc(-c4ccn5ncc(C(C)C)c5c4)n3)nc2)C(=O)C1 [compound 235] | < 100 | < 10 | 10 to 100 | 10 to 100 | < 100 | – | – | – |
| CC(C)c1cnn2ccc(-c3ccnc(Nc4ccc(N5CCN(S(C)(=O)=O)CCC5=O)cn4)n3)cc12 [compound 236] | < 100 | < 10 | 10 to 100 | < 10 | < 100 | – | – | – |
| CC(C)c1cnn2ccc(-c3ccnc(Nc4ccc(N5CCN(CCO)CC5=O)cn4)n3)cc12 [compound 237] | < 100 | < 10 | 10 to 100 | 10 to 100 | < 100 | – | – | – |
| CC(C)n1cnc2c1CN(c1ccnc(Nc3ccc(N4CCCNC4=O)cn3)n1)CC2 [compound 242] | 500 to 1000 | < 10 | 100 to 1000 | 10 to 100 | < 100 | – | – | – |
| CC(C)n1cnc2c1CN(c1ccnc(Nc3ccc(N4CCC(C)(N)CC4=O)cn3)n1)CC2 (stereo not shown) [compound 244] | 500 to 1000 | < 10 | 10 to 100 | 100 to 1000 | 500 to 1000 | – | – | – |
| CC(C)n1cnc2c1CN(c1ccnc(Nc3ccc(N4CCC(N(C)C)CC4=O)cn3)n1)CC2 (stereo not shown) [compound 245] | 500 to 1000 | < 10 | 10 to 100 | 100 to 1000 | 100 to 500 | – | – | – |
| CC1(N)CCN(c2ccc(Nc3nccc(-c4cc(F)c5c(c4)C(C)(C)CO5)n3)nc2)C(=O)C1 (stereo not shown) [compound 258] | < 100 | < 10 | 10 to 100 | 10 to 100 | < 100 | – | – | – |
| CN(C)C1CCN(c2ccc(Nc3nccc(-c4cc(F)c5c(c4)C(C)(C)CO5)n3)nc2)C(=O)C1 (stereo not shown) [compound 259] | < 100 | < 10 | 10 to 100 | 10 to 100 | < 100 | – | – | – |
| CC(C)n1cnc2c(F)nc(-c3ccnc(Nc4ccc(N5CCC(N(C)C)CC5=O)cn4)n3)cc21 (stereo not shown) [compound 270] | < 100 | < 10 | 10 to 100 | < 10 | < 100 | – | – | – |
| CC(C)n1cnc2c(F)nc(-c3ccnc(Nc4ccc(N5CC6CC5CN6)cn4)n3)cc21 (stereo not shown) [compound 272] | < 100 | < 10 | 100 to 1000 | 10 to 100 | < 100 | – | – | – |
| CC(C)n1cnc2c(F)nc(-c3ccnc(Nc4ccc(N5CCNCC5=O)cn4)n3)cc21 [compound 273] | < 100 | < 10 | 10 to 100 | 10 to 100 | < 100 | – | – | – |
| Cc1nc2c(F)nc(-c3ccnc(Nc4ccc(N5CCNCC5=O)cn4)n3)cc2n1C(C)C [compound 276] | < 100 | < 10 | 10 to 100 | < 10 | < 100 | – | – | – |
| CC(C)n1cnc2c(F)nc(-c3nc(Nc4ccc(N5CCC(N(C)C)CC5=O)cn4)ncc3Cl)cc21 (stereo not shown) [compound 278] | < 100 | < 10 | 100 to 1000 | 10 to 100 | < 100 | – | – | – |
| Cc1cnc(Nc2ccc(N3CCC(N(C)C)CC3=O)cn2)nc1-c1cc2c(ncn2C(C)C)c(F)n1 (stereo not shown) [compound 279] | < 100 | < 10 | 100 to 1000 | 10 to 100 | < 100 | – | – | – |
| CC(C)n1cnc2c(F)nc(-c3ccnc(Nc4ccc(N5CCC(C)(N)CC5=O)cc4)n3)cc21 (stereo not shown) [compound 280] | < 100 | < 10 | < 10 | < 10 | < 100 | – | – | – |
| CC(C)n1cnc2c(F)nc(-c3ccnc(Nc4ccc(N5CCC(N(C)C)CC5=O)cc4)n3)cc21 (stereo not shown) [compound 281] | < 100 | < 10 | < 10 | < 10 | < 100 | – | – | – |
| CC(C)n1cnc2c(F)nc(-c3ccnc(Nc4ccc(N5CCCNC5=O)cc4)n3)cc21 [compound 282] | < 100 | < 10 | < 10 | < 10 | < 100 | – | – | – |
| CC(C)n1cnc2c(F)nc(-c3ccnc(Nc4ccc(N5CCCC(N(C)C)C5=O)cn4)n3)cc21 (stereo not shown) [compound 283] | < 100 | < 10 | > 1000 | < 10 | < 100 | – | – | – |
| CCN1CCN(Cc2ccc(Nc3nccc(-c4cc5c(ncn5C(C)C)c(F)n4)n3)nc2)CC1 [compound 285] | < 100 | < 10 | > 1000 | 10 to 100 | < 100 | – | – | – |
| CC(C)n1cnc2c(F)nc(-c3ccnc(Nc4ccc(N5CCNCC5)cn4)n3)cc21 [compound 286] | < 100 | < 10 | 100 to 1000 | 10 to 100 | < 100 | – | – | – |
| CC(C)n1cnc2c(F)nc(-c3ccnc(Nc4ccc(N5CCCC(N)C5=O)cc4)n3)cc21 (stereo not shown) [compound 293] | < 100 | < 10 | 10 to 100 | < 10 | < 100 | – | – | – |
| CCN1CC2CC1CN2c1ccc(Nc2nccc(-c3cc4c(ncn4C(C)C)c(OC)n3)n2)nc1 (stereo not shown) [compound 312] | 100 to 500 | – | – | – | < 100 | < 10 | > 1000 | 10 to 100 |
| COc1nc(-c2ccnc(Nc3ccc(N4CCC(N5CCC5)CC4=O)cn3)n2)cc2c1ncn2C(C)C (stereo not shown) [compound 314] | < 100 | – | – | – | < 100 | < 10 | 10 to 100 | 10 to 100 |
| COc1nc(-c2ccnc(Nc3ccc(N4CCC(N5CC(F)(F)C5)CC4=O)cn3)n2)cc2c1ncn2C(C)C (stereo not shown) [compound 315] | 100 to 500 | – | – | – | < 100 | < 10 | 100 to 1000 | 10 to 100 |
